In ChEMBL document CHEMBL1149874 (Bioorg Med Chem, 2008) one finds Ki, Activity and IC50 data, which are given here for six compounds.

The source made the active and inactive calls. The calls are words filed in the database; no cut-off is given here. Residues, ends and D or L forms follow the SMILES beside them.

Experiment [1] deals with T1, Mu-type opioid receptor (Homo sapiens, UniProt P35372). Nature of the experiment: Displacement of [3H]DAMGO from mu opioid receptor in human SH-SY5Y cells. The class given is cell-based. (Loss of bound radioactivity is the signal in a displacement assay; it reports binding, not function.)
T1 sequence (P35372 whole entry): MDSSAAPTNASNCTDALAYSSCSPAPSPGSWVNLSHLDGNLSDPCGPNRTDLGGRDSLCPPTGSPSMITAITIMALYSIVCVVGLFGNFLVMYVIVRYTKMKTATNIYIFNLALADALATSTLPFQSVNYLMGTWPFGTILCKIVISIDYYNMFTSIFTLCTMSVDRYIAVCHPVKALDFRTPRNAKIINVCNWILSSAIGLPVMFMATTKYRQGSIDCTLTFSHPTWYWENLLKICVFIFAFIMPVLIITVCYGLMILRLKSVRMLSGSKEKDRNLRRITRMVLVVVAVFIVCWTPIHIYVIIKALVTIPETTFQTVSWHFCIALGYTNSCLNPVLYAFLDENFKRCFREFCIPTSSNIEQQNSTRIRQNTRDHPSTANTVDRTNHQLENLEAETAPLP
Experiment [2] addresses T1, Mu-type opioid receptor. Nature of the experiment: Decrease in internalization of mu opioid receptor in human SH-SY5Y cells. The class given is cell-based.
The target of experiment [3] is T1, Mu-type opioid receptor. The experiment can be described thus: Agonist activity at mu opioid receptor assessed as inhibition of forskolin-induced cAMP production in human SH-SY5Y cells pretreated for 24 hrs with DMEM medium after 15 mins. The class given is functional, cell-based.
For experiment [4], the target named is T1, Mu-type opioid receptor. Nature of the experiment: Agonist activity at mu opioid receptor assessed as inhibition of forskolin-induced cAMP production in human SH-SY5Y cells pretreated for 24 hrs with excess ligand after 15 mins. The class given is functional, cell-based. On the technique in general: cAMP levels reflect the balance of adenylyl cyclase and phosphodiesterase activity.

The target in experiment [5] is T1, Mu-type opioid receptor. Nature of the experiment: Increase in internalization of mu opioid receptor in human SH-SY5Y cells. The class given is cell-based.

The Ki is the dissociation constant of the complex between target and ligand, obtained from inhibition or displacement. Lower therefore signals higher affinity. `C[C@H](NC(=O)[C@@H](N)Cc1ccc(O)cc1)C(=O)N[C@@H](Cc1c[nH]c2ccccc12)C(=O)N[C@@H](Cc1ccccc1)C(N)=O` (H-YAWF-NH2) returned a Ki in experiment [1] of 3190 nM.

Compound `C[C@H](NC(=O)[C@H](C)NC(=O)[C@@H]1CCCN1C(=O)[C@@H](N)Cc1ccc(O)cc1)C(N)=O` (H-YPAA-NH2) registered a Ki in experiment [1] of 705 nM. In addition, in experiment [2], the result was Active.

The compound `C[C@H](NC(=O)[C@@H]1CCCN1C(=O)[C@@H](N)Cc1ccc(O)cc1)C(=O)N[C@@H](Cc1ccccc1)C(N)=O` (H-YPAF-NH2) displayed a Ki in experiment [1] of 226 nM. Also, the outcome in experiment [2] was Active.

For `C[C@H](NC(=O)[C@H](Cc1c[nH]c2ccccc12)NC(=O)[C@@H]1CCCN1C(=O)[C@@H](N)Cc1ccc(O)cc1)C(N)=O` (H-YPWA-NH2), affinity in experiment [1] was put at a Ki of 72.7 nM. In addition, the outcome in experiment [2] was Active.

As a reminder, the IC50 is the concentration at which inhibition is half-maximal. As for H-YGGWL-NH2, the IC50 stood at 27.5 nM in experiment [3] and 49.2 nM in experiment [4]. The inhibition constant Ki in experiment [1] is 12.1 nM. The same compound showed an Activity in experiment [5] of 22%.

Consider H-YGWFL-NH2, for which the results for the IC50 in experiment [3] and in experiment [4] were 126 nM and 132 nM, respectively. The Ki in experiment [1] stood at 113 nM. In addition, the Activity in experiment [5] is 40%.
